Data published in paper PMC8567874, “Metronomic delivery of orally available pemetrexed-incorporated colloidal dispersions for boosting tumor-specific immunity” (Drug Delivery, 2021).

Columns and labels:
[1] = test system: CT26.CL25 cells; test: Immunofluorescence (confocal) analysis of ICD induction; assay type: cell-based; conditions: CT26.CL25, 300 µM, 48 h, confocal microscopy
Experimental: CT26.CL25 cells, cultured in coverslips at 1 × 10^4 cell density, were treated with 300 µM DL, 300 µM PMX, or PMX/DL (equivalent to 300 µM PMX) for 48 h. The PMX dose was converted from the Cmax of the pharmacokinetic profile in patients treated with 500 mg/m^2 PMX-IV (Li et al., [2007]). The cells were then washed with PBS, fixed in 10% formalin solution, and incubated with a cell membrane marker, Texas Red-X conjugated wheat germ agglutinin solution (5 µg/mL), for 10 min at room temperature. The cells were washed and permeabilized with 1% Triton-X solution for 40 min at room temperature. The cells were then incubated overnight with primary anti-CRT (1:200) or anti-HMGB-1 (1:200) antibodies at 4 °C after washing with PBS. On the following day, the cells were washed and incubated with secondary anti-rabbit Alexa Fluor 488 (1:400; Invitrogen; Thermo Fisher Scientific) for 1 h at room temperature and then stained with DAPI. Confocal laser scanning microscopy (TCS SP8; Leica Microsystems, Wetzlar, Germany) was used to obtain images.

[2] = test system: CT26.CL25 tumor-bearing mice; test: In vivo immunostimulatory effects in CT26.CL25 tumor-bearing mice (flow cytometry, ELISPOT, slide staining); conditions: 3 weeks, PMX 150 mg/kg IV every 3 weeks, PMX/DL-CD oral daily 20 mg/kg PMX
Experimental: To investigate in vivo immunostimulatory effects of oral metronomic PMX, BALB/c mice were inoculated with 1 × 10^6 of CT26.CL25 cells per mouse. The mice were randomly divided into three groups (10 mice per group) once the tumor volume had reached 50–70 mm^3: control (untreated), PMX-IV (150 mg/kg PMX administered IV every 3 weeks), and PMX/DL-CD (oral PMX/DL(1:1)-CD administered daily, equivalent to 20 mg/kg PMX). The mice were sacrificed 3 weeks after treatment and the tumors were isolated. The tumor tissues were converted into single cells by passing them through a 40-µm filter after digestion with collagenase A (0.2% w/v), DNAse (30 U/mL), and dispase (10 U/mL) in MACS (gentleMACS Octo Dissociator with Heaters; Miltenyi Biotec, Bergisch Gladbach, Germany) at 37 °C for 45 min. Some cells were collected for tumor-infiltrating lymphocyte analyses and centrifuged using histopaque-1077 for 20 min at 450 g to isolate the lymphocytes. The isolated cells were then stained with fluorescence-conjugated antibodies and incubated. The cells were washed and suspended in FACS buffer and then collected into FACS tubes. The cells were then analyzed using flow cytometry (FACS Aria II) and the data were analyzed using FlowJo software (FlowJo LLC, Ashland, OR, USA). Cell populations were acquired by gating, as follows: tumor-infiltrating lymphocytes (DAPI^−/CD45^+), helper T cells (DAPI^−/CD45^+/CD3^+/CD4^+), PD-L1-expressing tumor cells (DAPI^−/CD45^−/PD-L1^+), proliferating cytotoxic T cells (DAPI^−/CD45^+/CD3^+/CD8^+/ki67^+), and IFN-γ-secreting T cells (DAPI^−/CD45^+/CD3^+/CD8^+/IFN-γ^+).
Lymphocytes were isolated from the tumors using the procedure described previously; 2 × 10^5 tumor lymphocytes per well, along with β-gal (5 µg/mL), were incubated on pre-coated 96-well plates in CTL test medium for 24 h at 37 °C with 9% CO2. […] After the procedure, the plates were scanned and the spots were counted in the ELISpot counter (Immunospot® S6 ULTIMATE analyzer; Cellular Technology Ltd.). […]

## Nc1nc2[nH]cc(CCc3ccc(C(=O)N[C@@H](CCC(=O)O)C(=O)O)cc3)c2c(=O)[nH]1 [PMX, Pemetrexed]
[1]
  CRT-fluorescence compared to controls and DL-treated cells: more intense
  HMGB-1-release compared to controls and DL-treated cells: higher
[2]
  CD4+ T-cell population in tumor compared to control: substantially increased
  CD45+ cell infiltration in tumor compared to control: slightly increased
  PD-L1 expression in tumor cells, times greater compared to the control group: two
